According to patent EP1282680B1, “COMPOSITIONS COMPRISING CYCLODEXTRIN” (THE PROCTER & GAMBLE COMPANY, priority 2000, dated 2001):
Where a name gives a salt, the structure may show the parent alone.

Experiments:
[1] = CD interaction of perfume components; format: physicochemical; details: weak = cyclodextrin-compatible; significant or strong = cyclodextrin-incompatible
Source text: The following table illustrates the molecular weight property of some of the cyclodextrin-incompatible enduring (hydrophobic) perfume materials (i.e. having significant or strong CD interaction) versus cyclodextrin-compatible perfume materials (i.e. having weak CD interaction).

[2] = Complexation constant with cyclodextrin, spectral displacement method with phenolphthalein; format: binding; details: unit not given, the text gives complexation constants in M^-1
Source text: (§1) A spectral displacement method with phenolphthalein is used to determine the complexation constant between cyclodextrin and a given material, especially for surfactants. This method of determining complexation constants with cyclodextrins is described in detail in the following references: Sasaki, KJ., Christian, S.D., and Tucker, E.E., "Study of the Stability of 1:1 Complexes Between Aliphatic Alcohols and b-Cyclodextrins in Aqueous Solution," Fluid Phase Equilibria, Vol. 49, (Amsterdam, Elsevier Science Publishers, 1989), pp. 281-89. Further information regarding spectral displacement methods can be found in other references, e.g. in Wilson, L.D., Siddall, S.R, and Verrall RE., "A Spectral Displacement Study of the Binding Constants of Cyclodextrin-Hydrocarbon and - Fluorocarbon Surfactant Inclusion Complexes," Canadian Journal of Chemistry, Vol. 75, (NRC Canada 1997), pp. 927-933.
The test method is based on the fact that phenolphthalein will complex with cyclodextrin and in complexed form is colorless. However, it has a strong color at pH 10.5 when in non-complexed form. Other, cyclodextrin-incompatible, materials themselves complex with the cyclodextrin and prevent the phenolphthalein from doing so. Thus the higher the complexation constant of the other component with cyclodextrin, the more non-complexed phenolphthalein will be present and the stronger the observed color.
The complexation constant of a given material with cyclodextrin is obtained by an absorbance measurement in the visible region at 550 nm that is performed with a spectrophotometer at room temperature. All solutions are prepared in 4.0 x 10^-3 mol/l Na2CO3 solution to maintain a constant pH. The concentration of phenolphthalein is kept constant at 3.0 x 10^-5 mol/l. Cyclodextrin concentration and surfactant concentration are varied. Here, optimum parameter values for absorption coefficient of phonolphthalein at 550 nm is 33,000 M^-1 cm^-1, and the complexation constants of phenolphthalein with cyclodextrin and cyclodextrin derivatives are preliminary obtained. […] Complexation constants of cyclodextrin-compatible and/or cyclodextrin-incompatible materials arc determined with using the free, uncomplexed phenolphthalein concentration obtained by absorbance at 550 nm.

[3] = Elevation of surfactant surface tension in the presence of cyclodextrin; format: physicochemical; details: in the presence of a typical cyclodextrin like hydroxypropyl beta-cyclodextrin and methylated beta-cyclodextrin (1%)
Source text: Cyclodextrin-incompatible surfactants generally can be readily identified by the noticeable effect of cyclodextrin on the surface tension provided by the cyclodextrin-incompatible surfactant This is achieved by determining the surface tension (in dyne/cm) of aqueous solutions of the cyclodextrin-incompatible surfactant in the presence and in the absence of 1% of a specific cyclodextrin in the solutions. The aqueous solutions contain cyclodextrin-incompatible surfactant at concentrations of approximately 0.5%, 0.1%, 0.01%, and 0.005%. The cyclodextrin can affect the surface activity of a surfactant by elevating the surface tension of the surfactant solution. […]
Suitable cyclodextrin-compatible surfactants can also be readily identified by the absence of effect of cyclodextrin on the surface tension provided by the surfactant. […]

[4] = cited from earlier work
[5] = Complexation constant of phenolphthalein with beta-cyclodextrin, absorbance at 550 nm; format: binding; details: room temperature, 4.0 x 10^-3 mol/l Na2CO3 solution, pH 10.5
Source text: as §1, with “927-933. […]” for “927-933.”
The complexation constant of a given material with cyclodextrin is obtained by an absorbance measurement in the visible region at 550 nm that is performed with a spectrophotometer at room temperature. […] Complexation constants of cyclodextrin-compatible and/or cyclodextrin-incompatible materials arc determined with using the free, uncomplexed phenolphthalein concentration obtained by absorbance at 550 nm.

**Q.** For `CC(C=O)Cc1ccc(C(C)C)cc1` (centres unmarked) [Cymal], which CD interaction [1] is on record?
**A.** The CD interaction was “strong”.

**Q.** With `CCOC(=O)c1ccccc1C(=O)OCC` [Diethyl Phthalate] as the molecule, how does the CD interaction [1] read?
**A.** Its CD interaction is “weak”.

**Q.** With `CCCCCCCCCCCC[N+](C)(C)C.[Br-]` [Dodecyltrimethylammonium bromide] as the molecule, how does the “Complexation Constant (K)” value [2] read?
**A.** The value was “about 18100”.

**Q.** With `CC(=O)OC1CC2CC1C1CC=CC21` (centres unmarked) [Flor Acetate] as the molecule, how does the CD interaction [1] read?
**A.** Its CD interaction is “strong”.

**Q.** With `CCC(=O)OC1CC2CC1C1CC=CC21` (centres unmarked) [Frutene] as the molecule, how does the CD interaction [1] read?
**A.** The CD interaction was “strong”.

**Q.** Which CD interaction [1] does the source give for `CC1COCc2cc3c(cc21)C(C)(C)C(C)C3(C)C` (centres unmarked) [Galaxolide] here?
**A.** The CD interaction was “weak”.

**Q.** With `CCCCCCOC(=O)c1ccccc1O` [Hexyl Salicylate] as the molecule, how does the CD interaction [1] read?
**A.** Its CD interaction is “weak”.

**Q.** For `CCCCCCC(C=O)=Cc1ccccc1` [Hexyl cinnamic Aldehyde], which CD interaction [1] is on record?
**A.** Its CD interaction is “weak”.

**Q.** With `CC(=O)C1(C)CC2=C(CCCC2(C)C)CC1C` (centres unmarked) [Iso-E Super] as the molecule, how does the CD interaction [1] read?
**A.** The CD interaction was “weak”.

**Q.** With `CCCCCCCCCCCCCC(=O)OC(C)C` [Iso-propyl Myristate] as the molecule, how does the CD interaction [1] read?
**A.** The CD interaction was “weak”.

**Q.** Which CD interaction [1] does the source give for `CC(=O)C(C)=C(C)C(C)C(C)(C)C` (centres unmarked) [Koavone] here?
**A.** The CD interaction was “strong”.

**Q.** Which CD interaction [1] does the source give for `CC(C=O)Cc1ccc(C(C)(C)C)cc1` (centres unmarked) [Lilial, p-t-bucinal] here?
**A.** The CD interaction was “strong”.

**Q.** Which CD interaction [1] does the source give for `CC(C)(O)CCCC1=CCC(C=O)CC1` (centres unmarked) [Lyral] here?
**A.** Its CD interaction is “weak”.

**Q.** Which CD interaction [1] does the source give for `CCCCCC1C(=O)CCC1CC(=O)OC` (centres unmarked) [Methyl Dihydro Jasmonate] here?
**A.** Its CD interaction is “weak”.

**Q.** For `O=C(Cc1ccccc1)OCCc1ccccc1` [Phenyl-Ethyl-Phenyl Acetate], which CD interaction [1] is on record?
**A.** The CD interaction was “weak”.

**Q.** For `CCCCCCCCCCCCOS(=O)(=O)[O-].[Na+]` [Sodium dodecyl sulfate], which “Complexation Constant (K)” value [2] is on record?
**A.** Its value is “about 22000”.

**Q.** What about the “elevation in surface tension” value [3] of the same molecule?
**A.** Its value is over 10%.

**Q.** Which “Complexation Constant (K)” value [2] does the source give for `CCCCCCCCCCCC(=O)[O-].[Na+]` [Sodium laurate] here?
**A.** The value was “about 16000”.

**Q.** For `CC(=O)OC(C)(C)C1CC=C(C)CC1` (centres unmarked) [Terpinyl Acetate], which CD interaction [1] is on record?
**A.** Its CD interaction is “significant”.

**Q.** Which CD interaction [1] does the source give for `CCC(C)(O)CCCC(C)C` (centres unmarked) [Tetrahydrolinalol] here?
**A.** The CD interaction was “significant”.

**Q.** Which CD interaction [1] does the source give for `CC(=O)OC1CCC(C(C)(C)C)CC1` (centres unmarked) [Vertenex, para-tert-butylcyclohexyl acetate] here?
**A.** Its CD interaction is “strong”.

**Q.** With `CC(=O)/C=C/C1C(C)=CCCC1(C)C` (centres unmarked) [a-ionone] as the molecule, how does the CD interaction [1] read?
**A.** Its CD interaction is “strong”.

**Q.** For `[H]/N=C(\N/C(=N/[H])NCCCCCCNC(=N)NC(=N)Nc1ccc(Cl)cc1)Nc1ccc(Cl)cc1` [diacetate salt, 1,1'-hexamethylene bis(5-(p-chlorophenyl)biguanide)], which solubility in water [4] is on record?
**A.** Its solubility in water is 1.8%.

**Q.** Which solubility in water [4] does the source give for `[H]/N=C(\N/C(=N/[H])NCCCCCCNC(=N)NC(=N)Nc1ccc(Cl)cc1)Nc1ccc(Cl)cc1` [digluconate salt, 1,1'-hexamethylene bis(5-(p-chlorophenyl)biguanide)] here?
**A.** Its solubility in water is 70%.

**Q.** With `O=C1OC(c2ccc(O)cc2)(c2ccc(O)cc2)c2ccccc21` [phenolphthalein] as the molecule, how does the “complexation constant of phenolphthalein with beta-cyclodextrin” value [5] read?
**A.** The value was “about 21,000 M^-1”.

**Q.** For Lauramine oxide, which “Complexation Constant (K)” value [2] is on record?
**A.** The value was “about 7500”.

**Q.** Which “Complexation Constant (K)” value [2] does the source give for Lawreth-6 here?
**A.** The value was “about 10000”.

**Q.** With a-Me Ionone as the molecule, how does the CD interaction [1] read?
**A.** The CD interaction was “strong”.

**Q.** Which “elevation in surface tension” value [3] does the source give for dodecanolpoly(6)ethoxylate here?
**A.** The value was over 10%.
